# Test results published in US10781224B2, “Bis(oxymethyl)phosphinic acid and biogenic metal salts thereof as regulators of plant growth and development” (priority 2016, dated 2020).
# Columns and labels:
# [1] = tested on: rice (Diamant variety); assay: Rice seed treatment with BHMPA salts: germinating power; format: in vivo; conditions: for Length, root / Length, root, + % to control / Length, sprout / Length, sprout, + % to control / Mass, dry, root / Mass, dry, root, + % to control / Mass, dry, sprout / Mass, dry, sprout, + % to control / Mass, wet, root / Mass, wet, root, + % to control / Mass, wet, sprout / Mass, wet, sprout, + % to control: rice seed treatment
# Description: (§1) Experimental versions—soaking seeds in BHMPA solutions and solutions of BHMPA Ca, Mg, Na, Co, Mn, Cu, and Zn salts at 1·10^−6-1·10^−12% concentrations (doses). The studies were conducted in laboratory in Petri dishes; seed bed—two layers of filter paper. 50 seeds soaked in water (control) and in the solutions of the tested compounds (experimental) were placed into each dish. Wheat, corn, and rice seeds were exposed for one hour.
# (§2) Seed germination energy and rate were calculated in percent as an arithmetic mean of the four experimental results (germination energy on the 4th day, wheat germination on the 8th day, rice and corn germination—on the 7th day). Germination was determined based on the germinating power indicators (length of the roots and sprouts and their wet and dry mass per 100 shoots).
# (§3) The effect of pre-sowing seed treatment with the claimed BHMPA salts of biogenic metals was studied on winter wheat (Vershin variety), corn (Krasnodar 385 MV variety), and rice (Diamant variety).
# The above data describe the seed viability only at the initial stage of germination, while the germination ability at the later stage of germination is defined by the initial germinating power. The method for the determination of the germinating power comprises measuring the height of the sprouts and primary roots, as well as the biomass and the dry mass thereof per 100 seedlings. [M. A. Kartuzova. Initial Germinating Power as Method of Biological Assessment of Seed Quality. Selection and Seed Farming, #2, 1953].
# [2] = tested on: corn (Krasnodar 385 MV variety); assay: Corn seed treatment with BHMPA salts: germination energy and germination rate; format: in vivo
# Description: Control—Soaking Seeds in Water;
# as §1
# Analysis was conducted according to the government standards GOST 12038-84 “Crop seeds. Technical conditions for determining the germination energy and germination rate”, GOST 12044-93 “Crop seeds. Methods for determining disease contamination.”
# as §2, §3
# [3] = comparison with Melaphen (Table XXXIII), solution 1 · 10^−10%
# [4] = experimental solution 1 · 10^−6%
# [5] = experimental solution 1 · 10^−7%
# [6] = experimental solution 1 · 10^−8%
# [7] = experimental solution 1 · 10^−9%
# [8] = experimental solution 1 · 10^−10%
# [9] = experimental solution 1 · 10^−11%
# [10] = experimental solution 1 · 10^−12%
# [11] = rice, vs control, 1·10^−10% solution
# [12] = comparative study vs Melaphen, 1·10^−8% solution
substance,measurement,setting,value
Copper BHMPA Salt [Cu-salt],optimum concentration for treating rice seeds before sowing,[1]; rice,1·10^−10%
same,"Length, root",[1]; [3],6.3 cm
same,"Length, root, + % to control",[1]; [3],31%
same,"Length, sprout",[1]; [3],3.3 cm
same,"Length, sprout, + % to control",[1]; [3],27%
same,"Mass, dry, root",[1]; [3],0.26 g/100 plantlings
same,"Mass, dry, root, + % to control",[1]; [3],24%
same,"Mass, dry, sprout",[1]; [3],0.27 g/100 plantlings
same,"Mass, dry, sprout, + % to control",[1]; [3],8%
same,"Mass, wet, root",[1]; [3],1.35 g/100 plantlings
same,"Mass, wet, root, + % to control",[1]; [3],38%
same,"Mass, wet, sprout",[1]; [3],2.25 g/100 plantlings
same,"Mass, wet, sprout, + % to control",[1]; [3],49%
same,"Length, root",[1]; [4],5.4 cm
same,"Length, root, + % to control",[1]; [4],6%
same,"Length, sprout",[1]; [4],2.6 cm
same,"Length, sprout, + % to control",[1]; [4],8%
same,"Mass, dry, root",[1]; [4],0.19 g/100 plantlings
same,"Mass, dry, root, + % to control",[1]; [4],12%
same,"Mass, dry, sprout",[1]; [4],0.26 g/100 plantlings
same,"Mass, dry, sprout, + % to control",[1]; [4],13%
same,"Mass, wet, root",[1]; [4],0.93 g/100 plantlings
same,"Mass, wet, root, + % to control",[1]; [4],13%
same,"Mass, wet, sprout",[1]; [4],1.47 g/100 plantlings
same,"Mass, wet, sprout, + % to control",[1]; [4],6.5%
same,"Length, root",[1]; [5],5.5 cm
same,"Length, root, + % to control",[1]; [5],8%
same,"Length, sprout",[1]; [5],2.7 cm
same,"Length, sprout, + % to control",[1]; [5],12.5%
same,"Mass, dry, root",[1]; [5],0.21 g/100 plantlings
same,"Mass, dry, root, + % to control",[1]; [5],23.5%
same,"Mass, dry, sprout",[1]; [5],0.29 g/100 plantlings
same,"Mass, dry, sprout, + % to control",[1]; [5],26%
same,"Mass, wet, root",[1]; [5],1.03 g/100 plantlings
same,"Mass, wet, root, + % to control",[1]; [5],26%
same,"Mass, wet, sprout",[1]; [5],1.61 g/100 plantlings
same,"Mass, wet, sprout, + % to control",[1]; [5],17%
same,"Length, root",[1]; [6],5.7 cm
same,"Length, root, + % to control",[1]; [6],12%
same,"Length, sprout",[1]; [6],2.8 cm
same,"Length, sprout, + % to control",[1]; [6],17%
same,"Mass, dry, root",[1]; [6],0.23 g/100 plantlings
same,"Mass, dry, root, + % to control",[1]; [6],35%
same,"Mass, dry, sprout",[1]; [6],0.31 g/100 plantlings
same,"Mass, dry, sprout, + % to control",[1]; [6],35%
same,"Mass, wet, root",[1]; [6],1.09 g/100 plantlings
same,"Mass, wet, root, + % to control",[1]; [6],33%
same,"Mass, wet, sprout",[1]; [6],1.74 g/100 plantlings
same,"Mass, wet, sprout, + % to control",[1]; [6],26%
same,"Length, root",[1]; [7],5.9 cm
same,"Length, root, + % to control",[1]; [7],16%
same,"Length, sprout",[1]; [7],2.8 cm
same,"Length, sprout, + % to control",[1]; [7],17%
same,"Mass, dry, root",[1]; [7],0.25 g/100 plantlings
same,"Mass, dry, root, + % to control",[1]; [7],47%
same,"Mass, dry, sprout",[1]; [7],0.33 g/100 plantlings
same,"Mass, dry, sprout, + % to control",[1]; [7],43%
same,"Mass, wet, root",[1]; [7],1.16 g/100 plantlings
same,"Mass, wet, root, + % to control",[1]; [7],41%
same,"Mass, wet, sprout",[1]; [7],1.92 g/100 plantlings
same,"Mass, wet, sprout, + % to control",[1]; [7],39%
same,"Length, root",[1]; [8],6.0 cm
same,"Length, root, + % to control",[1]; [8],18%
same,"Length, sprout",[1]; [8],2.9 cm
same,"Length, sprout, + % to control",[1]; [8],21%
same,"Mass, dry, root",[1]; [8],0.27 g/100 plantlings
same,"Mass, dry, root, + % to control",[1]; [8],59%
same,"Mass, dry, sprout",[1]; [8],0.36 g/100 plantlings
same,"Mass, dry, sprout, + % to control",[1]; [8],56.5%
same,"Mass, wet, root",[1]; [8],1.22 g/100 plantlings
same,"Mass, wet, root, + % to control",[1]; [8],49%
same,"Mass, wet, sprout",[1]; [8],2.11 g/100 plantlings
same,"Mass, wet, sprout, + % to control",[1]; [8],53%
same,"Length, root",[1]; [9],5.9 cm
same,"Length, root, + % to control",[1]; [9],16%
same,"Length, sprout",[1]; [9],2.7 cm
same,"Length, sprout, + % to control",[1]; [9],12.5%
same,"Mass, dry, root",[1]; [9],0.24 g/100 plantlings
same,"Mass, dry, root, + % to control",[1]; [9],41%
same,"Mass, dry, sprout",[1]; [9],0.32 g/100 plantlings
same,"Mass, dry, sprout, + % to control",[1]; [9],39%
same,"Mass, wet, root",[1]; [9],1.12 g/100 plantlings
same,"Mass, wet, root, + % to control",[1]; [9],36.5%
same,"Mass, wet, sprout",[1]; [9],1.87 g/100 plantlings
same,"Mass, wet, sprout, + % to control",[1]; [9],35.5%
same,"Length, root",[1]; [10],5.6 cm
same,"Length, root, + % to control",[1]; [10],10%
same,"Length, sprout",[1]; [10],2.6 cm
same,"Length, sprout, + % to control",[1]; [10],8%
same,"Mass, dry, root",[1]; [10],0.20 g/100 plantlings
same,"Mass, dry, root, + % to control",[1]; [10],18%
same,"Mass, dry, sprout",[1]; [10],0.27 g/100 plantlings
same,"Mass, dry, sprout, + % to control",[1]; [10],17%
same,"Mass, wet, root",[1]; [10],1.01 g/100 plantlings
same,"Mass, wet, root, + % to control",[1]; [10],23%
same,"Mass, wet, sprout",[1]; [10],1.75 g/100 plantlings
same,"Mass, wet, sprout, + % to control",[1]; [10],27%
same,dry mass of the roots increased by,[1]; [11],59%
same,dry mass of the sprouts increased by,[1]; [11],56.5%
same,length of the root increased by,[1]; [11],18%
same,length of the sprout increased by,[1]; [11],21%
same,wet mass of the roots increased by,[1]; [11],49%
same,wet mass of the sprouts increased by,[1]; [11],53%
same,Germination energy,[2]; 1·10^−6% solution,80.0%
same,Germination rate,[2]; 1·10^−6% solution,82.5%
same,Germination energy,[2]; 1·10^−7% solution,82.3%
same,Germination rate,[2]; 1·10^−7% solution,85.0%
same,Germination energy,[2]; 1·10^−8% solution,91.8%
same,Germination rate,[2]; 1·10^−8% solution,94.2%
same,Germination energy,[2]; 1·10^−9% solution,90.0%
same,Germination rate,[2]; 1·10^−9% solution,92.3%
same,Germination energy,[2]; 1·10^−10% solution,85.8%
same,Germination rate,[2]; 1·10^−10% solution,88.3%
same,Germination energy,[2]; 1·10^−11% solution,82.3%
same,Germination rate,[2]; 1·10^−11% solution,85.0%
same,Germination energy,[2]; 1·10^−12% solution,78.8%
same,Germination rate,[2]; 1·10^−12% solution,81.7%
same,Germination energy,[2]; [12],87.7%
same,Germination rate,[2]; [12],97.0%
